Reference: US4760136A, “Chartreusin derivatives and salts thereof” (Ishihara Sangyo Kaisha, Ltd., priority 1984, dated 1988)

Columns and labels:
[1] = Acute toxicity, intravenous (once), ddY mice; assay type: in vivo; details: mouse, in vivo, iv, formulated per Preparation Example
From the text: In Table 7 are shown acute toxicity values (LD50, mg/kg) in ddY mice in the case of intravenously administering (once) each of the compounds of this invention in the form of preparations shown in the Preparation Examples shown in Table 7.

P-388 leukemia cells = experiment: Antitumor activity: P-388 leukemia cells inoculated intraperitoneally, drug administered intravenously, BDF1 mice; assay type: in vivo; details: Mus musculus, P388, iv, BDF1 mice, P-388 i.p., read-out: T/C (%) of MST; for response vs control in vivo at 20 mg/kg: dose b: 20 mg/kg × 3, i.v. on days 1, 5 and 9; for response vs control in vivo at 50 mg/kg: dose d: 50 mg/kg × 3, i.v. on days 1, 5 and 9; for response vs control in vivo at 160 mg/kg: dose i: 160 mg/kg × 3, i.v. on days 1, 5 and 9; for response vs control in vivo at 80 mg/kg: dose f: 80 mg/kg × 3, i.v. on days 1, 5 and 9; for response vs control in vivo at 40 mg/kg: dose c: 40 mg/kg × 3, i.v. on days 1, 5 and 9; for response vs control in vivo at 10 mg/kg: dose a: 10 mg/kg × 3, i.v. on days 1, 5 and 9
Method in brief: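 Drug dosing was intravenous on the first, fifth and ninth days after intraperitoneal inoculation of P-388 leukemia cells (1×10^6 per mouse) into BDF1 mice. Vehicles were physiological saline alone, or saline with small amounts of sodium carboxymethyl cellulose or Tween-80.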

SMILES | LD50 [1] | response vs control in vivo at 80 mg/kg (P-388 leukemia cells) | response vs control in vivo at 40 mg/kg (P-388 leukemia cells) | also measured
COC1C(O)C(C)OC(OC2C(Oc3cccc4c(OC(=O)C(Cc5ccccc5)NC(=O)OCc5ccccc5)c5c(=O)oc6ccc(C)c7c(=O)oc(c34)c5c67)OC(C)C3OC(c4ccc(Cl)cc4)OC32)C1O (centres unmarked) [compound 127] | ≥ 40 mg/kg |  |  | response vs control in vivo at 20 mg/kg (P-388 leukemia cells): 130%
COC1C(O)C(C)OC(OC2C(Oc3cccc4c(OC(=O)C(Cc5ccccc5)NC(=O)OCc5ccccc5)c5c(=O)oc6ccc(C)c7c(=O)oc(c34)c5c67)OC(C)C3OC(C)(C)OC32)C1O (centres unmarked) [compound 128] | ≥ 100 mg/kg |  |  | response vs control in vivo at 50 mg/kg (P-388 leukemia cells): 146%
COC1C(O)C(C)OC(OC2C(Oc3cccc4c(OC(=O)CCCCCCCCCCCNC(C)=O)c5c(=O)oc6ccc(C)c7c(=O)oc(c34)c5c67)OC(C)C3OC(C)(C)OC32)C1O (centres unmarked) [compound 129] | ≥ 180 mg/kg |  |  | response vs control in vivo at 160 mg/kg (P-388 leukemia cells): 167%
COC1C(O)C(C)OC(OC2C(Oc3cccc4c(OC(=O)CCCCCNC(=O)C(F)(F)F)c5c(=O)oc6ccc(C)c7c(=O)oc(c34)c5c67)OC(C)C3OC(CC(C)=O)OC32)C1O (centres unmarked) [compound 130] | ≥ 180 mg/kg |  |  | response vs control in vivo at 160 mg/kg (P-388 leukemia cells): 141%
CCC1(C)O[C@H]2[C@@H](O1)[C@@H](C)O[C@@H](Oc1cccc3c(OC(=O)CC(C)NC(=O)C(F)(F)F)c4c(=O)oc5ccc(C)c6c(=O)oc(c13)c4c56)[C@@H]2O[C@H]1O[C@H](C)[C@H](O)[C@H](OC)[C@H]1O (some centres unmarked) [compound 131] | ≥ 100 mg/kg | 148% |  | 
COC1C(O)C(C)OC(OC2C(Oc3cccc4c(OC(=O)CCNC(=O)C(F)(F)F)c5c(=O)oc6ccc(C)c7c(=O)oc(c34)c5c67)OC(C)C3OC4(CCCCC4)OC32)C1O (centres unmarked) [compound 132] | ≥ 100 mg/kg | 146% | 136% | 
COC1C(O)C(C)OC(OC2C(Oc3cccc4c(OC(=O)C(Cc5c[nH]c6ccccc56)NC(=O)OCc5ccccc5)c5c(=O)oc6ccc(C)c7c(=O)oc(c34)c5c67)OC(C)C3OC4(CCCCC4)OC32)C1O (centres unmarked) [compound 133] | ≥ 100 mg/kg | 139% |  | 
CCC(CN(C)C)C(=O)Oc1c2cccc(OC3OC(C)C4OC(c5ccccc5)OC4C3OC3OC(C)C(O)C(OC)C3O)c2c2oc(=O)c3c(C)ccc4oc(=O)c1c2c43 (centres unmarked) [compound 134] | ≥ 30 mg/kg |  |  | response vs control in vivo at 10 mg/kg (P-388 leukemia cells): 192%; response vs control in vivo at 20 mg/kg (P-388 leukemia cells): 175%
C=CCCC(=O)Oc1c2cccc(O[C@@H]3O[C@H](C)[C@@H]4OC(c5ccccc5)O[C@@H]4[C@H]3O[C@H]3O[C@H](C)[C@H](O)[C@H](OC)[C@H]3O)c2c2oc(=O)c3c(C)ccc4oc(=O)c1c2c43 (some centres unmarked) [compound 192] | ≥ 40 mg/kg |  |  | response vs control in vivo at 10 mg/kg (P-388 leukemia cells): 153%; response vs control in vivo at 20 mg/kg (P-388 leukemia cells): 199%
COc1cccc(C(=O)Oc2c3cccc(O[C@@H]4O[C@H](C)[C@@H]5OC(c6ccccc6)O[C@@H]5[C@H]4O[C@H]4O[C@H](C)[C@H](O)[C@H](OC)[C@H]4O)c3c3oc(=O)c4c(C)ccc5oc(=O)c2c3c54)c1 (some centres unmarked) [compound 193] | ≥ 40 mg/kg |  |  | response vs control in vivo at 10 mg/kg (P-388 leukemia cells): 162%
CO[C@H]1[C@@H](O)[C@@H](C)O[C@H](O[C@H]2[C@H](Oc3cccc4c(OC(=O)c5ccc(Cl)cc5)c5c(=O)oc6ccc(C)c7c(=O)oc(c34)c5c67)O[C@H](C)[C@@H]3OC(c4ccccc4)O[C@@H]32)[C@@H]1O (some centres unmarked) [compound 194] | ≥ 40 mg/kg |  | 192% | response vs control in vivo at 20 mg/kg (P-388 leukemia cells): 130%
CO[C@H]1[C@@H](O)[C@@H](C)O[C@H](O[C@H]2[C@H](Oc3cccc4c(OC(=O)c5ccc(C(F)(F)F)cc5)c5c(=O)oc6ccc(C)c7c(=O)oc(c34)c5c67)O[C@H](C)[C@@H]3OC(c4ccccc4)O[C@@H]32)[C@@H]1O (some centres unmarked) [compound 195] | ≥ 40 mg/kg |  | 165% | 
C=CC(=O)Oc1c2cccc(O[C@@H]3O[C@H](C)[C@@H]4OC(C)(C)O[C@@H]4[C@H]3O[C@H]3O[C@H](C)[C@H](O)[C@H](OC)[C@H]3O)c2c2oc(=O)c3c(C)ccc4oc(=O)c1c2c43 [compound 197] | ≥ 80 mg/kg | 171% | 144% | 
CO[C@H]1[C@@H](O)[C@@H](C)O[C@H](O[C@H]2[C@H](Oc3cccc4c(OC(=O)C=C(C)C(F)(F)F)c5c(=O)oc6ccc(C)c7c(=O)oc(c34)c5c67)O[C@H](C)[C@@H]3OC(C)(C)O[C@@H]32)[C@@H]1O [compound 198] | ≥ 80 mg/kg |  | 176% | 
CO[C@H]1[C@@H](O)[C@@H](C)O[C@H](O[C@H]2[C@H](Oc3cccc4c(OC(=O)COC(=O)c5ccccc5)c5c(=O)oc6ccc(C)c7c(=O)oc(c34)c5c67)O[C@H](C)[C@@H]3OC(C)(C)O[C@@H]32)[C@@H]1O [compound 199] | ≥ 60 mg/kg |  |  | response vs control in vivo at 50 mg/kg (P-388 leukemia cells): 159%
C/C=C/C(=O)Oc1c2cccc(O[C@@H]3O[C@H](C)[C@@H]4OC(C)(C)O[C@@H]4[C@H]3O[C@H]3O[C@H](C)[C@H](O)[C@H](OC)[C@H]3O)c2c2oc(=O)c3c(C)ccc4oc(=O)c1c2c43 [compound 200] | ≥ 80 mg/kg |  | 168% | 
C#CCCC(=O)Oc1c2cccc(O[C@@H]3O[C@H](C)[C@@H]4OC(C)(C)O[C@@H]4[C@H]3O[C@H]3O[C@H](C)[C@H](O)[C@H](OC)[C@H]3O)c2c2oc(=O)c3c(C)ccc4oc(=O)c1c2c43 [compound 201] | ≥ 60 mg/kg |  | 162% | 
COC(=O)CCC(=O)Oc1c2cccc(O[C@@H]3O[C@H](C)[C@@H]4OC(C)(C)O[C@@H]4[C@H]3O[C@H]3O[C@H](C)[C@H](O)[C@H](OC)[C@H]3O)c2c2oc(=O)c3c(C)ccc4oc(=O)c1c2c43 [compound 202] | ≥ 60 mg/kg |  | 174% | 
CO[C@H]1[C@@H](O)[C@@H](C)O[C@H](O[C@H]2[C@H](Oc3cccc4c(OC(=O)CCCCl)c5c(=O)oc6ccc(C)c7c(=O)oc(c34)c5c67)O[C@H](C)[C@@H]3OC(C)(C)O[C@@H]32)[C@@H]1O [compound 204] | ≥ 60 mg/kg |  | 174% | 
CO[C@H]1[C@@H](O)[C@@H](C)O[C@H](O[C@H]2[C@H](Oc3cccc4c(OC(=O)COc5ccccc5)c5c(=O)oc6ccc(C)c7c(=O)oc(c34)c5c67)O[C@H](C)[C@@H]3OC(C)(C)O[C@@H]32)[C@@H]1O [compound 205] | ≥ 80 mg/kg | 173% | 153% | 
CO[C@H]1[C@@H](O)[C@@H](C)O[C@H](O[C@H]2[C@H](Oc3cccc4c(OC(=O)CCC(=O)c5ccc(F)cc5)c5c(=O)oc6ccc(C)c7c(=O)oc(c34)c5c67)O[C@H](C)[C@@H]3OC(C)(C)O[C@@H]32)[C@@H]1O [compound 206] | ≥ 80 mg/kg | 180% | 139% | 
COC(=O)c1ccc(C(=O)Oc2c3cccc(O[C@@H]4O[C@H](C)[C@@H]5OC(C)(C)O[C@@H]5[C@H]4O[C@H]4O[C@H](C)[C@H](O)[C@H](OC)[C@H]4O)c3c3oc(=O)c4c(C)ccc5oc(=O)c2c3c54)cc1 [compound 207] | ≥ 80 mg/kg | 192% | 130% | 
COc1ccc(C(=O)Oc2c3cccc(O[C@@H]4O[C@H](C)[C@@H]5OC(C)(C)O[C@@H]5[C@H]4O[C@H]4O[C@H](C)[C@H](O)[C@H](OC)[C@H]4O)c3c3oc(=O)c4c(C)ccc5oc(=O)c2c3c54)cc1 [compound 208] | ≥ 80 mg/kg | 192% | 136% | 
CO[C@H]1[C@@H](O)[C@@H](C)O[C@H](O[C@H]2[C@H](Oc3cccc4c(OC(=O)c5cccc(N(C)C)c5)c5c(=O)oc6ccc(C)c7c(=O)oc(c34)c5c67)O[C@H](C)[C@@H]3OC(C)(C)O[C@@H]32)[C@@H]1O [compound 209] | ≥ 80 mg/kg | 192% | 134% | 
CO[C@H]1[C@@H](O)[C@@H](C)O[C@H](O[C@H]2[C@H](Oc3cccc4c(OC(=O)CCCl)c5c(=O)oc6ccc(C)c7c(=O)oc(c34)c5c67)O[C@H](C)[C@@H]3OC(c4ccccc4F)O[C@@H]32)[C@@H]1O (some centres unmarked) [compound 210] | ≥ 60 mg/kg |  | 186% | 
COC(=O)c1ccc(C(=O)Oc2c3cccc(O[C@@H]4O[C@H](C)[C@@H]5OC(c6ccco6)O[C@@H]5[C@H]4O[C@H]4O[C@H](C)[C@H](O)[C@H](OC)[C@H]4O)c3c3oc(=O)c4c(C)ccc5oc(=O)c2c3c54)cc1 (some centres unmarked) [compound 211] | ≥ 80 mg/kg | 176% |  | 
